The values that follow are results of earlier work, collected in patent publication US9168307B2, “Mitochondrial-targeted cationic nanoparticles comprising CaMKII inhibitors and uses thereof for treating and preventing diseases and disorders associated with CaMKII activity” (University of Iowa Research Foundation, priority 2012, dated 2015).

The term IC50 denotes the concentration that gives 50% inhibition.

The data set relates to CaMKII. The conditions noted are these: starting point for dose response curve.

With “KRPPKLGQIGRAKRVVIEDDR (SEQ ID NO:1) [peptide]”, the IC50 was 0.1 µM.
